The values that follow come from the supplement of paper PMC11208160.
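Further: IS621 recombinase and bridge RNA in Escherichia coli cells.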

The data set is described as follows: recombinant barcode read abundance after kanamycin selection (control-corrected) (log10(CPM+1)); higher = more efficient recombination; sequences stand for … in AGTGCAGAGAAAATCGGCCAGTTTTCTCTGCCTGCAGTCCGCATGCCGT…AGATTTATGCAGCGGACTGCCTTTCTCCCAAAGTGATAAACCGGACAGTATCATGGACCGGTTTTCCCGGTAATCCGTATTTGCAAGGTTGGTTTCACT; site = the 11-nt target. An outline of the steps:
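Targets and IS621 bridge RNA target-binding loops were paired in oligos, each with a promoter, a barcode and the J23119-driven first 104 bridge RNA bases. A vector carrying the remaining 73 bp and a T7-inducible recombinase received these by Gibson cloning, and the pool was co-electroporated into E. coli with a donor plasmid. Duplicate plates contained chloramphenicol/ampicillin LB agar (control) or chloramphenicol/ampicillin/kanamycin with 0.1 mM IPTG. Recombination efficiency comes from averaged, control-corrected counts per million of recombinant-junction barcodes, reported as log10(CPM+1).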
Take “CCTAAACCTTGGGTTCTAACCTGTTGCGT (site CCTAAGCCTAC)”: the “recombinant barcode read abundance (log10)” value came to 0.03.

Turning to “CCTAAACCTTGGGTTCTAACCTGTTGCGT (site CCTAATCCTAC)”, the “recombinant barcode read abundance (log10)” value came to 0.0605.

As for “CCTAACACTTGGGTTCTAACCTGTTGCCT (site ACTAACACTAG)”, the “recombinant barcode read abundance (log10)” value is 0.0635.

With “CCTAACACTTGGGTTCTAACCTGTTGCCT (site CCTAACACTAG)”, the “recombinant barcode read abundance (log10)” value worked out at 0.501.

For the sequence “CCTAACACTTGGGTTCTAACCTGTTGCCT (site GCTAACACTAG)”, the “recombinant barcode read abundance (log10)” value worked out at 0.0372.

On to “CCTAACACTTGGGTTCTAACCTGTTGCCT (site TCTAACACTAG)”, for which the “recombinant barcode read abundance (log10)” value turned out to be 0.114.

For “CCTACACCTTGGGTTCTAACCTGTTGCCT (site CCTACAACTAG)”, the “recombinant barcode read abundance (log10)” value came to 0.0638.

“CCTACACCTTGGGTTCTAACCTGTTGCCT (site CCTACACCTAG)”: the “recombinant barcode read abundance (log10)” value amounted to 0.928.

Turning to “CCTACACCTTGGGTTCTAACCTGTTGCCT (site CCTACAGCTAG)”, the “recombinant barcode read abundance (log10)” value came out at 0.0384.

“CCTACACCTTGGGTTCTAACCTGTTGCCT (site CCTACATCTAG)”: the “recombinant barcode read abundance (log10)” value came to 0.52.

Take “CCTAGACCTTGGGTTCTAACCTGTTGCCT (site CCTAGAACTAG)”: the “recombinant barcode read abundance (log10)” value is 0.067.

Take “CCTAGACCTTGGGTTCTAACCTGTTGCCT (site CCTAGACCTAG)”: the “recombinant barcode read abundance (log10)” value stood at 0.771.

With “CCTAGACCTTGGGTTCTAACCTGTTGCCT (site CCTAGAGCTAG)”, the “recombinant barcode read abundance (log10)” value was determined as 0.201.

Turning to “CCTAGACCTTGGGTTCTAACCTGTTGCCT (site CCTAGATCTAG)”, the “recombinant barcode read abundance (log10)” value came out at 0.312.

As for “CCTAGCACTTGGGTTCTAACCTGTTGCGA (site CCTAGCACTTC)”, the “recombinant barcode read abundance (log10)” value is 0.939.

As for “CCTAGCACTTGGGTTCTAACCTGTTGCGA (site CCTCGCACTTC)”, the “recombinant barcode read abundance (log10)” value is 0.0896.

In the case of “CCTAGCACTTGGGTTCTAACCTGTTGCGA (site CCTGGCACTTC)”, the “recombinant barcode read abundance (log10)” value was found to be 0.0943.

As to “CCTAGCACTTGGGTTCTAACCTGTTGCGA (site CCTTGCACTTC)”, the “recombinant barcode read abundance (log10)” value was 0.0494.

“CCTATAGCTTGGGTTCTAACCTGTTGCTT (site CCTATAGCTAA)”: the “recombinant barcode read abundance (log10)” value came out at 0.0878.

On to “CCTATAGCTTGGGTTCTAACCTGTTGCTT (site GAGTCTACTTG)”, for which the “recombinant barcode read abundance (log10)” value was found to be 0.0203.

Take “CCTCAGGCTTGGGTTCTAACCTGTTGCCT (site CCTCAGGCTAG)”: the “recombinant barcode read abundance (log10)” value came out at 0.106.

With “CCTCAGGCTTGGGTTCTAACCTGTTGCCT (site CCTCAGGCTCG)”, the “recombinant barcode read abundance (log10)” value turned out to be 0.0672.

Turning to “CCTCAGGCTTGGGTTCTAACCTGTTGCCT (site CCTCAGGCTGG)”, the “recombinant barcode read abundance (log10)” value stood at 0.107.

As to “CCTCAGGCTTGGGTTCTAACCTGTTGCCT (site CCTCAGGCTTG)”, the “recombinant barcode read abundance (log10)” value was 0.204.

With “CCTCAGTCTTGGGTTCTAACCTGTTGCTT (site CCTCAATCTAA)”, the “recombinant barcode read abundance (log10)” value is 0.441.

Turning to “CCTCAGTCTTGGGTTCTAACCTGTTGCTT (site CCTCACTCTAA)”, the “recombinant barcode read abundance (log10)” value worked out at 0.0235.

On to “CCTCAGTCTTGGGTTCTAACCTGTTGCTT (site CCTCAGTCTAA)”, for which the “recombinant barcode read abundance (log10)” value stood at 1.68.

As to “CCTCAGTCTTGGGTTCTAACCTGTTGCTT (site CCTCATTCTAA)”, the “recombinant barcode read abundance (log10)” value was determined as 0.122.

Take “CCTCGAGCTTGGGTTCTAACCTGTTGCGG (site CCTCGAGCTCC)”: the “recombinant barcode read abundance (log10)” value stood at 1.86.

As to “CCTCGAGCTTGGGTTCTAACCTGTTGCGG (site TCTAGAGCTCC)”, the “recombinant barcode read abundance (log10)” value amounted to 0.184.

Take “CCTCGCACTTGGGTTCTAACCTGTTGCGA (site CCTAGCACTTC)”: the “recombinant barcode read abundance (log10)” value came to 0.126.

As for “CCTCGCACTTGGGTTCTAACCTGTTGCGA (site CCTCGCACTTC)”, the “recombinant barcode read abundance (log10)” value stood at 0.112.

Turning to “CCTCGCACTTGGGTTCTAACCTGTTGCGA (site CCTGGCACTTC)”, the “recombinant barcode read abundance (log10)” value came to 0.0155.

Consider “CCTCGCACTTGGGTTCTAACCTGTTGCGA (site CCTTGCACTTC)”, for which the “recombinant barcode read abundance (log10)” value stood at 0.0861.

For “CCTCGCGCTTGGGTTCTAACCTGTTGCCT (site CCTAACGCTAG)”, the “recombinant barcode read abundance (log10)” value was 0.822.

Consider “CCTCGCGCTTGGGTTCTAACCTGTTGCCT (site CCTCGCGCTAG)”, for which the “recombinant barcode read abundance (log10)” value came out at 0.354.

With “CCTCGGACTTGGGTTCTAACCTGTTGCAT (site CATCGTACTAT)”, the “recombinant barcode read abundance (log10)” value worked out at 0.0825.

Regarding “CCTCGGACTTGGGTTCTAACCTGTTGCAT (site CCTCGGACTAT)”, the “recombinant barcode read abundance (log10)” value was determined as 1.59.

With “CCTGATTCTTGGGTTCTAACCTGTTGCCT (site CCTGAATCTAG)”, the “recombinant barcode read abundance (log10)” value amounted to 0.0629.

For “CCTGATTCTTGGGTTCTAACCTGTTGCCT (site CCTGACTCTAG)”, the “recombinant barcode read abundance (log10)” value is 0.113.

Consider “CCTGATTCTTGGGTTCTAACCTGTTGCCT (site CCTGAGTCTAG)”, for which the “recombinant barcode read abundance (log10)” value came out at 0.107.

Take “CCTGATTCTTGGGTTCTAACCTGTTGCCT (site CCTGATTCTAG)”: the “recombinant barcode read abundance (log10)” value was determined as 0.322.

For “CCTGGACCTTGGGTTCTAACCTGTTGCTT (site CCTGGACCTAA)”, the “recombinant barcode read abundance (log10)” value came to 1.87.

For the sequence “CCTGGACCTTGGGTTCTAACCTGTTGCTT (site CCTGGTCCTAT)”, the “recombinant barcode read abundance (log10)” value is 0.

For “CCTGGCACTTGGGTTCTAACCTGTTGCGA (site CCTAGCACTTC)”, the “recombinant barcode read abundance (log10)” value turned out to be 1.45.

Consider “CCTGGCACTTGGGTTCTAACCTGTTGCGA (site CCTCGCACTTC)”, for which the “recombinant barcode read abundance (log10)” value was determined as 0.0518.

In the case of “CCTGGCACTTGGGTTCTAACCTGTTGCGA (site CCTGGCACTTC)”, the “recombinant barcode read abundance (log10)” value was 2.37.

With “CCTGGCACTTGGGTTCTAACCTGTTGCGA (site CCTTGCACTTC)”, the “recombinant barcode read abundance (log10)” value was 0.0559.

Consider “CCTGGGCCTTGGGTTCTAACCTGTTGCTT (site CCTGGACCTAC)”, for which the “recombinant barcode read abundance (log10)” value was determined as 0.471.

Consider “CCTGGGCCTTGGGTTCTAACCTGTTGCTT (site CCTGGGCCTAA)”, for which the “recombinant barcode read abundance (log10)” value came out at 0.686.

Regarding “CCTGGGGCTTGGGTTCTAACCTGTTGCCT (site CCTGGGGCTAG)”, the “recombinant barcode read abundance (log10)” value was determined as 0.233.

Turning to “CCTGGGGCTTGGGTTCTAACCTGTTGCCT (site CCTGGTCCTAG)”, the “recombinant barcode read abundance (log10)” value worked out at 0.189.

With “CCTGTATCTTGGGTTCTAACCTGTTGCCT (site ACTGTATCTAG)”, the “recombinant barcode read abundance (log10)” value worked out at 0.0208.

As for “CCTGTATCTTGGGTTCTAACCTGTTGCCT (site CCTGTATCTAG)”, the “recombinant barcode read abundance (log10)” value came out at 0.127.

“CCTGTATCTTGGGTTCTAACCTGTTGCCT (site GCTGTATCTAG)”: the “recombinant barcode read abundance (log10)” value is 0.26.

Regarding “CCTGTATCTTGGGTTCTAACCTGTTGCCT (site TCTGTATCTAG)”, the “recombinant barcode read abundance (log10)” value was 0.039.

With “CCTTACACTTGGGTTCTAACCTGTTGCGG (site CCTGACACTCC)”, the “recombinant barcode read abundance (log10)” value is 0.063.

For the sequence “CCTTACACTTGGGTTCTAACCTGTTGCGG (site CCTTACACTCC)”, the “recombinant barcode read abundance (log10)” value is 2.53.

Turning to “CCTTACCCTTGGGTTCTAACCTGTTGCCT (site CCTTACCCTAG)”, the “recombinant barcode read abundance (log10)” value was found to be 1.11.

Consider “CCTTACCCTTGGGTTCTAACCTGTTGCCT (site CCTTAGCCTAG)”, for which the “recombinant barcode read abundance (log10)” value turned out to be 0.0606.

Consider “CCTTCTCCTTGGGTTCTAACCTGTTGCAT (site CCTTCTCCTAT)”, for which the “recombinant barcode read abundance (log10)” value stood at 0.319.

On to “CCTTCTCCTTGGGTTCTAACCTGTTGCAT (site GTACGATCTCC)”, for which the “recombinant barcode read abundance (log10)” value stood at 0.146.

With “CCTTGCACTTGGGTTCTAACCTGTTGCGA (site CCTAGCACTTC)”, the “recombinant barcode read abundance (log10)” value turned out to be 0.0223.

As for “CCTTGCACTTGGGTTCTAACCTGTTGCGA (site CCTCGCACTTC)”, the “recombinant barcode read abundance (log10)” value is 0.0306.

With “CCTTGCACTTGGGTTCTAACCTGTTGCGA (site CCTGGCACTTC)”, the “recombinant barcode read abundance (log10)” value was determined as 0.0155.

On to “CCTTGCACTTGGGTTCTAACCTGTTGCGA (site CCTTGCACTTC)”, for which the “recombinant barcode read abundance (log10)” value turned out to be 0.409.

Turning to “CCTTGGGCTTGGGTTCTAACCTGTTGCTT (site CCTTGGGCTAA)”, the “recombinant barcode read abundance (log10)” value was determined as 0.011.

Regarding “CCTTGGGCTTGGGTTCTAACCTGTTGCTT (site CTTTGGCCTAA)”, the “recombinant barcode read abundance (log10)” value is 0.305.

As for “CCTTGTACTTGGGTTCTAACCTGTTGCCT (site CCTTGTACTAG)”, the “recombinant barcode read abundance (log10)” value stood at 0.035.

Turning to “CCTTGTACTTGGGTTCTAACCTGTTGCCT (site CTTTGTACTAG)”, the “recombinant barcode read abundance (log10)” value came out at 0.0491.

Regarding “CCTTTACCTTGGGTTCTAACCTGTTGCCT (site ACTTTACCTAG)”, the “recombinant barcode read abundance (log10)” value stood at 0.136.

As for “CCTTTACCTTGGGTTCTAACCTGTTGCCT (site CCTTTACCTAG)”, the “recombinant barcode read abundance (log10)” value worked out at 0.337.

For “CCTTTACCTTGGGTTCTAACCTGTTGCCT (site GCTTTACCTAG)”, the “recombinant barcode read abundance (log10)” value came to 0.0546.

For “CCTTTACCTTGGGTTCTAACCTGTTGCCT (site TCTTTACCTAG)”, the “recombinant barcode read abundance (log10)” value came to 0.171.

On to “CGAACATCTTGGGTTCTAACCTGTTGCTT (site ACCTACCCTCC)”, for which the “recombinant barcode read abundance (log10)” value came to 0.

For the sequence “CGAACATCTTGGGTTCTAACCTGTTGCTT (site CGAACATCTAA)”, the “recombinant barcode read abundance (log10)” value came to 0.144.

For the sequence “CGAACGACTTGGGTTCTAACCTGTTGCCT (site CGAACGACTAA)”, the “recombinant barcode read abundance (log10)” value is 0.157.
